In patent US8222487B2, “Application of ERF genes from Bupleurum kaoi” (National Tsing Hua University, priority 2009, dated 2012):

Key:
[1] = tested on: B. kaoi adventitious roots; assay: Effect of MeJA on saikosaponin production in adventitious roots (HPLC); assay type: cell-based, Bupleurum kaoi; settings: for Increase of total saikosaponins: 2 weeks after treatment, P<0.05; for Saikosaponin: measured 14 days after MeJA treatment, mean ± S.E., n=3
Description: Adventitious root cultures were induced from the roots of germ-free seedlings of B. kaoi and were subcultured every 6 weeks by adding 0.2 g roots to a 125 ml flask containing 50 ml of B5 liquid medium supplemented with 2 mg 1^−1 NAA. Cultures were shaken using a rotary shaker at 100 rpm at 25° C. in the dark. To quantify the effect of MeJA on saikosaponin level, adventitious roots were treated with 500 and 1000 μM MeJA 2 weeks after subculture. Total saikosaponin was measured 2 weeks after MeJA treatment. To monitor expression of MeJA-responsive genes, the nutrient medium was refreshed 4 weeks after subculture and MeJA (500 μM) was applied 2 weeks after refreshment. Roots were harvested at 13 time points (5 min; 1, 2, 8, 24 hours; 2, 4, 6, 8 days; 2, 3, 4, 5 weeks) after the addition of the MeJA. The saikosaponins level was measured according to Li et al. (Li X. Q. et al., Biol. Pharm. Bull. 28 (2005) 1736-1742) with some modifications. Freeze-dried adventitious roots were ground into a fine powder and extracted with 70% methanol at a ratio of 10:1 (v/w) at 25° C. with gentle shaking for 24 h. After centrifugation at 10,000×g for 10 min, the supernatant was filtered through a 0.45 μm filter. The amount of total saikosaponins (saikosaponin-a, saikosaponin-c, and saikosaponin-d) in each extract was quantified using a high performance liquid chromatograph (HPLC) (Waters 600 controller autoinjector) with a C18 Inertsil 5 ODS-2 column (4.6 mm×250 mm) and a mobile phase of 45% acetonitrile/55% H2O. The flow rate was 1 ml min^−1, the injection volume was 20 μl, and the eluent was monitored at 210 nm using a Waters 996 photodiode array detector.

[2] = tested on: cell suspension cultures of Medicago truncatula; settings: 5 μM MeJA for 2 h; cited from earlier work

CC/C=C\CC1C(=O)CCC1CC(=O)OC (centres unmarked) [MeJA, Methyl jasmonate]
Increase of total saikosaponins ([1]; 500 μM MeJA): 38 fold | Increase of total saikosaponins ([1]; 1000 μM MeJA): 21 fold | Saikosaponin ([1]; MeJA 500 μM): 63.60 ± 20.46 μg g^−1 of dry wt | Saikosaponin ([1]; MeJA 1000 μM): 39.73 ± 13.25 μg g^−1 of dry wt | PAL transcripts induction [2]: 3 fold
